Experimental data reported in patent US20090227680A1, “Amino Acid Derivatives” (Pfizer, Inc., priority 2005, published 2009).
Counter-ions that a name gives are not always drawn. Blank lines part the entries; values can stand above or below the molecule they belong to.

Biological target: T1, α2δ subunit derived from porcine brain tissue (Sus scrofa, UniProt A0A287BIN3)
T1 construct: the α2δ subunit derived from porcine brain tissue; from tissue; host or cells: porcine brain tissue
Experiment: radioligand binding assay using [3H]gabapentin and the α2δ subunit
Conditions: [3H]gabapentin binding
Excerpt: The biological activity of the alpha-2-delta ligands of the invention may be measured in a radioligand binding assay using [^3H]gabapentin and the α2δ subunit derived from porcine brain tissue (Gee N. S., Brown J. P., Dissanayake V. U. K., Offord J., Thurlow R., Woodruff G. N., J. Biol. Chem., 1996; 271:5768-5776). Results may be expressed in terms of μM or nM α2δ binding affinity.

T1 sequence (A0A287BIN3 25-1109): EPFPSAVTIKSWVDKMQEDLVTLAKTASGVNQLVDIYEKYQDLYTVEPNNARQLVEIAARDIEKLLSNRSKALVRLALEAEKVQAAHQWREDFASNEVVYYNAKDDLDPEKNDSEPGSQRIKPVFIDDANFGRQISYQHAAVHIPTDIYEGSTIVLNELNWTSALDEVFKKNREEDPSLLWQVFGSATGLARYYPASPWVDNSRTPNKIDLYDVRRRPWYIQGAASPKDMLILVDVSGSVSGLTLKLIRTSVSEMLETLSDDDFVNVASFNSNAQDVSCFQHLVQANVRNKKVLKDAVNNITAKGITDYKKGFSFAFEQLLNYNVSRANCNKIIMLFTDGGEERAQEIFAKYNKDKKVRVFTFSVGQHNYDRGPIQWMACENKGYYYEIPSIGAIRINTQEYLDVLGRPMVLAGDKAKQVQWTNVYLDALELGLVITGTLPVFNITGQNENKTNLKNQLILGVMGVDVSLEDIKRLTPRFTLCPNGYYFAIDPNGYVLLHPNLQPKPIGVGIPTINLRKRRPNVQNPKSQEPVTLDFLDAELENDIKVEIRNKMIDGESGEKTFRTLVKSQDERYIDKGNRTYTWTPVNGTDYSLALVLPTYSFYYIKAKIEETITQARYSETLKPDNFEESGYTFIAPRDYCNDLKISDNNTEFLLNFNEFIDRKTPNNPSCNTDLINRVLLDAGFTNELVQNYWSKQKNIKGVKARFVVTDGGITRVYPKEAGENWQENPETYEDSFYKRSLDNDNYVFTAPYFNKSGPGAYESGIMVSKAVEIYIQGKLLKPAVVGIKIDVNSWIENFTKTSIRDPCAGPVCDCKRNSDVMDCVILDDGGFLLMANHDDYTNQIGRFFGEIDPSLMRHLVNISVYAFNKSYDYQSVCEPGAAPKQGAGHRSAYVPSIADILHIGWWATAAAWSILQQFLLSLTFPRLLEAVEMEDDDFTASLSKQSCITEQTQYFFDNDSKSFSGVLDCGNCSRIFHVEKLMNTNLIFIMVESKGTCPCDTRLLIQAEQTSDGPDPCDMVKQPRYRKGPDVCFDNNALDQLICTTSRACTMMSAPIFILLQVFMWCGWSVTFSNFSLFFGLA

IC50: 12 nM
Compound: COc1ccc(Cl)cc1O[C@@H](CN)C(=O)O [Example 4]

IC50: 114 nM
Compound: CCCc1cccc(O[C@@H](CN)C(=O)O)c1 [Example 5, (2S)-3-Amino-2-(3-propylphenoxy)propanoic acid hydrochloride]

The next lines start with the molecule.

Compound: NC[C@H](Oc1cc(Cl)ccc1Cl)C(=O)O [Example 1, (2S)-3-Amino-2-(2,5-dichlorophenoxy)propanoic acid hydrochloride]
IC50: 9 nM

Compound: NC[C@H](Oc1cccc(Cl)c1)C(=O)O [Example 2]
IC50: 91 nM

Compound: NC[C@H](Oc1ccccc1Cl)C(=O)O [Example 3]
IC50: 124 nM
